Results: US20260085062A1, “NOVEL COMPOUNDS AS CK2 INHIBITORS” (Cambridge Enterprise Limited, priority 2022, published 2026)

Tests used:
CLK2 = target: T1, CLK2 (Homo sapiens, UniProt P49760); assay: Biochemical assay for inhibitors of CLK2 kinase activity (ADP-Glo); conditions: 20 nM CLK2, 50 μM peptide substrate, 100 μM ATP, read-out: Assay 2: CLK2 Enzyme IC50
T1 construct: purchased Carna Biosciences 04-127

intracellular CK2α = target: T2, intracellular CK2α (Homo sapiens, UniProt P19784); assay: Cell-based NanoBRET assay for inhibitor binding to intracellular CK2α; conditions: HCT116 cells transiently transfected with CSNK2A2-NanoLuc fusion vector; Tracer K-5; 2 h; read-out: Assay 3: NanoBRET ™ assay for binding to intracellular CK2α
T2 construct: host or cells: HCT116 (ATCC CCL-247)
Procedure, shortened: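 Apparent affinity came from BRET ratio (acceptor/donor ×1,000), with donor read at 450 nm and acceptor at 610 or 630 nm. Compounds competed off a tracer added at fixed concentration to cells carrying a NanoLuc-CK2α fusion.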

CK2α = target: T3, CK2α (Homo sapiens, UniProt P68400); assay: Biochemical assay for inhibitors of CK2α kinase activity (ADP-Glo); conditions: 0.2 nM CK2α, 50 μM peptide substrate, 15 μM ATP, read-out: Assay 1: CK2α Enzyme IC50
T3 construct: CK2α (residues 2-329) was produced in Escherichia coli BL21 (DE3) for kinase activity screening; His6 (N, cleaved yes); made in house; host or cells: Escherichia coli BL21 (DE3)
T3 sequence (P68400 2-329): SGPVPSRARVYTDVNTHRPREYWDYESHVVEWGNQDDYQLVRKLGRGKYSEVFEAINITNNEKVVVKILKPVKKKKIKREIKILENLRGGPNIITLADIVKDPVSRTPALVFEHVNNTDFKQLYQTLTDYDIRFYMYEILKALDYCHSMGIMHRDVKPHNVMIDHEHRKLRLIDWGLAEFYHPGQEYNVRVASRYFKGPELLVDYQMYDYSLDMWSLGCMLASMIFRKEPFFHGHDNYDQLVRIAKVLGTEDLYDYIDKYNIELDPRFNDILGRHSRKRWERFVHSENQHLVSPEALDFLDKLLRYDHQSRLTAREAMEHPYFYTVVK

T2 sequence (P19784 whole entry, the tested form may be a part): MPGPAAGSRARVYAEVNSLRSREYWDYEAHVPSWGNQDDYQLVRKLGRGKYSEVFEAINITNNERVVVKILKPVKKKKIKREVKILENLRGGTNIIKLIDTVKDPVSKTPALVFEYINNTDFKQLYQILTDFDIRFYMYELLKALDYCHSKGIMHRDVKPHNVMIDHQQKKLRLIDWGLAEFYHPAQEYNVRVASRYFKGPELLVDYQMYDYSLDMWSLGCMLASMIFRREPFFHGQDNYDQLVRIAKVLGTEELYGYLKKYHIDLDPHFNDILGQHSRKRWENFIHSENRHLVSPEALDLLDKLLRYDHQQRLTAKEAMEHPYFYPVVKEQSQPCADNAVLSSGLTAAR
T1 sequence (P49760 whole entry): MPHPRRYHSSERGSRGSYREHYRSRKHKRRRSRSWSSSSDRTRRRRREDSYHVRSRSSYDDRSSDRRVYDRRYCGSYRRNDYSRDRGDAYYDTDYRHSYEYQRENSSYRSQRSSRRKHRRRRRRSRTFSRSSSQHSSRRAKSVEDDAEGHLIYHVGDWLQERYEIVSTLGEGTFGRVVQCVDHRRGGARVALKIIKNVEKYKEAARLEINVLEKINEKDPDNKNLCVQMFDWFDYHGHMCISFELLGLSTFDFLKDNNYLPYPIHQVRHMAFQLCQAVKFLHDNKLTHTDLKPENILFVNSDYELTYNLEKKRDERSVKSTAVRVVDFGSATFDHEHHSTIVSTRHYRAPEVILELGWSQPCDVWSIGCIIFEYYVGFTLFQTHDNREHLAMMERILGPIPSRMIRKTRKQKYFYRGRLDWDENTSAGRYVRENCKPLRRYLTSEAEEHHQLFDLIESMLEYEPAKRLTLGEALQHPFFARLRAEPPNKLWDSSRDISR

Structure (SMILES)	IC50 (CLK2)	IC50 (intracellular CK2α)	IC50 (CK2α)
Clc1ccc2cc(CNCCCCOCCNc3cc(-n4cnnc4)cc4[nH]ncc34)[nH]c2c1 [Example 52, N-(2-(4-(((6-chloro-1H-indol-2-yl)methyl)amino)butoxy)ethyl)-6-(4H-1,2,4-triazol-4-yl)-1H-indazol-4-amine]	38.4 nM	294 nM	1.43 nM
c1cc2[nH]c(CNCCCCOCCNc3cc(-n4cnnc4)cc4[nH]ncc34)cc2cc1OC1CCC1 [Example 53, N-(2-(4-(((5-cyclobutoxy-1H-indol-2-yl)methyl)amino)butoxy)ethyl)-6-(4H-1,2,4-triazol-4-yl)-1H-indazol-4-amine]	119 nM	159 nM	0.33 nM
c1cc2[nH]c(CNCCCCOCCOc3cc(-c4cnoc4)cc4[nH]ncc34)cc2cc1OC1CCC1 [Example 54, N-((5-cyclobutoxy-1H-indol-2-yl)methyl)-4-(2-((6-(isoxazol-4-yl)-1H-indazol-4-yl)oxy)ethoxy)butan-1-amine]	217 nM	128 nM	1.44 nM
c1cc(-c2cc(OCCOCCCCNCc3cc4cc(OC5CCC5)ccc4[nH]3)c3cn[nH]c3c2)cnn1 [Example 55, N-((5-cyclobutoxy-1H-indol-2-yl)methyl)-4-(2-((6-(pyridazin-4-yl)-1H-indazol-4-yl)oxy)ethoxy)butan-1-amine]	4740 nM	149 nM	1.25 nM
FC(F)(F)c1ccc2[nH]c(CNCCCCOCCOc3cc(-c4ccnnc4)cc4[nH]ncc34)cc2c1 [Example 56, 4-(2-((6-(pyridazin-4-yl)-1H-indazol-4-yl)oxy)ethoxy)-N-((5-(trifluoromethyl)-1H-indol-2-yl)methyl)butan-1-amine]	3150 nM	387 nM	6.59 nM
c1cc(-c2cc(NCCOCCCCNCc3cc4cc(OC5CCC5)ccc4[nH]3)c3cn[nH]c3c2)cnn1 [Example 57, N-(2-(4-(((5-cyclobutoxy-1H-indol-2-yl)methyl)amino)butoxy)ethyl)-6-(pyridazin-4-yl)-1H-indazol-4-amine]	781 nM	69.8 nM	0.6 nM
O=C(CCNCc1ccc(-c2ccccc2CO)c(Cl)c1)NCCCNc1cc(-n2cnnc2)cc2[nH]ncc12 [Example 58, N-(3-((6-(4H-1,2,4-triazol-4-yl)-1H-indazol-4-yl)amino)propyl)-3-(((2-chloro-2′-(hydroxymethyl)-[1,1′-biphenyl]-4-yl)methyl)amino)propanamide]	40.9 nM	9290 nM	0.28 nM
O=C(CCNCc1ccc(-c2ccccc2)c(Cl)c1)NCCCNc1cccc2[nH]ncc12 [Example 61, N-(3-((1H-indazol-4-yl)amino)propyl)-3-(((2-chloro-[1,1′-biphenyl]-4-yl)methyl)amino)propenamide]	3470 nM	176 nM	104 nM
CN(C)C(=O)c1cc(NCCCNC(=O)CCNCc2ccc(-c3ccccc3)c(Cl)c2)c2cn[nH]c2c1 [Example 62, 4-((3-(3-(((2-chloro-[1,1'-biphenyl]-4-yl)methyl)amino)propanamido)propyl)amino)-N,N-dimethyl-1H-indazole-6-carboxamide]	14300 nM	29600 nM	182 nM
O=C(CCNCc1ccc(-c2ccccc2)c(Cl)c1)NCCCNc1cc(CO)cc2[nH]ncc12 [Example 63, 3-(((2-chloro-[1,1′-biphenyl]-4-yl)methyl)amino)-N-(3-((6-(hydroxymethyl)-1H-indazol-4-yl)amino)propyl)propanamide]	2370 nM	4980 nM	68.3 nM
FC(F)(F)Oc1ccc(CNCCc2ncc(CCNc3cc(-n4cnnc4)cc4[nH]ncc34)o2)cc1Cl [Example 64, N-(2-(2-(2-((3-chloro-4-(trifluoromethoxy)benzyl)amino)ethyl)oxazol-5-yl)ethyl)-6-(4H-1,2,4-triazol-4-yl)-1H-indazol-4-amine]	350 nM	1840 nM	7.88 nM
O=C(Cc1nnc(CCNCc2ccc(OC(F)(F)F)c(Cl)c2)[nH]1)Nc1cc(-n2cnnc2)cc2[nH]ncc12 [Example 65, N-(6-(4H-1,2,4-triazol-4-yl)-1H-indazol-4-yl)-2-(5-(2-((3-chloro-4-_(trifluoromethoxy)benzyl)amino)ethyl)-4H-1,2,4-triazol-3-yl)acetamide]	4160 nM	> 50000 nM	163 nM
O=C(CCNCCCNCc1ccc(OC(F)(F)F)c(Cl)c1)Nc1cc(-n2cnnc2)cc2[nH]ncc12 [Example 66, N-(6-(4H-1,2,4-triazol-4-yl)-1H-indazol-4-yl)-3-((3-((3-chloro-4-(trifluoromethoxy)benzyl)amino)propyl)amino)propanamide]	1000 nM	15600 nM	176 nM
FC(F)(F)Oc1ccc(CNCCCNCCCOc2cc(-n3cnnc3)cc3[nH]ncc23)cc1Cl [Example 67, N1-(3-((6-(4H-1,2,4-triazol-4-yl)-1H-indazol-4-yl)oxy)propyl)-N3-(3-chloro-4-(trifluoromethoxy)benzyl)propane-1,3-diamine]	4160 nM	13800 nM	278 nM
Cn1c(CNCCCCOCCNc2cc(-n3cnnc3)cc3[nH]ncc23)nc2ccc(Cl)cc21 [Example 68, N-(2-(4-(((6-chloro-1-methyl-1H-benzo[d]imidazol-2-yl)methyl)amino)butoxy)ethyl)-6-(4H-1,2,4-triazol-4-yl)-1H-indazol-4-amine]	566 nM	18700 nM	136 nM
FC(F)(F)Oc1ccc(CNCCCOCCCOc2cc(-n3cnnc3)cc3[nH]ncc23)cc1Cl [Example 69, 3-(3-((6-(4H-1,2,4-triazol-4-yl)-1H-indazol-4-yl)oxy)propoxy)-N-(3-chloro-4-(trifluoromethoxy)benzyl)propan-1-amine]	688 nM	2850 nM	46.6 nM
O=C(CCOCCCNCc1ccc(OC(F)(F)F)c(Cl)c1)Nc1cc(-n2cnnc2)cc2[nH]ncc12 [Example 70, N-(6-(4H-1,2,4-triazol-4-yl)-1H-indazol-4-yl)-3-(3-((3-chloro-4-(trifluoromethoxy)benzyl)amino)propoxy)propanamide]	1520 nM	> 50000 nM	256 nM
Cc1nncn1-c1cc(NCCCNC(=O)CCNCc2ccc(-c3ccccc3)c(Cl)c2)c2cn[nH]c2c1 [Example 71, 3-(((2-chloro-[1,1′-biphenyl]-4-yl)methyl)amino)-N-(3-((6-(3-methyl-4H-1,2,4-triazol-4-yl)-1H-indazol-4-yl)amino)propyl)propanamide]	416 nM	2160 nM	1.37 nM
CN(CCCCNCc1ccc(OC(F)(F)F)c(Cl)c1)CCNc1cc(-n2cnnc2)cc2[nH]ncc12 [Example 72, N1-(2-((6-(4H-1,2,4-triazol-4-yl)-1H-indazol-4-yl)amino)ethyl)-N4-(3-chloro-4-(trifluoromethoxy)benzyl)-N1-methylbutane-1,4-diamine]	431 nM	294 nM	0.7 nM
O=C(CCNCc1ccc(-c2ccccc2)c(Cl)c1)NCCCNc1cc(-c2cncnc2)cc2[nH]ncc12 [Example 73, 3-(((2-chloro-[1,1′-biphenyl]-4-yl)methyl)amino)-N-(3-((6-(pyrimidin-5-yl)-1H-indazol-4-yl)amino)propyl)propanamide]	1960 nM	743 nM	44.3 nM
